How the values were obtained:
[1] = Head-to-tail native chemical ligation in two-module microfluidic flow: SEAon peptide amide rearranged to SEAE thioester (pH 1, TCEP, 60 min, 90 or 65 C), then MPAA (0.4 M)/Na2HPO4 (0.2 M) pH 7.3 cyclisation onto N-terminal Cys; details: water (phosphate buffer, MPAA, TCEP; decane segmented carrier; 6 M Gn.HCl for 4l-p), 0.6 mM, 37.0 °C, 2 steps
[2] = Head-to-tail native chemical ligation in two-module microfluidic flow: SEAon peptide amide rearranged to SEAE thioester (pH 1, TCEP, 60 min, 90 or 65 C), then MPAA (0.4 M)/Na2HPO4 (0.2 M) pH 7.3 cyclisation onto N-terminal Cys, 4 min; details: 30-membered ring, water (phosphate buffer, MPAA, TCEP; decane segmented carrier), 0.6 mM, 37.0 °C, 0.067 h, 2 steps, scale: %
[3] = the molecule shown is the open-chain precursor, 54-membered ring, 0.25 h

CC[C@H](C)[C@@H]1NC(=O)[C@H](CS)NC(=O)[C@H](CC(C)C)NC(=O)CNC(=O)[C@H](Cc2c[nH]cn2)NC(=O)[C@H](C(C)C)NC(=O)[C@@H]2CCCN2C(=O)CNC(=O)[C@H](CC(=O)O)NC(=O)[C@H](CC(C)C)NC1=O [H-CILDGPVHGL-SEAon (via SEAE thioester)]
ring closure, yield over several steps ([1]; from CC[C@H](C)[C@H](NC(=O)[C@@H](N)CS)C(=O)N[C@@H](CC(C)C)C(=O)N[C@@H](CC(=O)O)C(=O)NCC(=O)N1CCC[C@H]1C(=O)N[C@H](C(=O)N[C@@H](Cc1c[nH]cn1)C(=O)NCC(=O)N[C@@H](CC(C)C)C(=O)SCCNCCS)C(C)C, 30-membered ring, 0.067 h): 64%
ring closure, conversion by HPLC ([2]; from CC[C@H](C)[C@H](NC(=O)[C@@H](N)CS)C(=O)N[C@@H](CC(C)C)C(=O)N[C@@H](CC(=O)O)C(=O)NCC(=O)N1CCC[C@H]1C(=O)N[C@H](C(=O)N[C@@H](Cc1c[nH]cn1)C(=O)NCC(=O)N[C@@H](CC(C)C)C(=O)SCCNCCS)C(C)C): 80

CC[C@H](C)[C@@H]1NC(=O)[C@H](CS)NC(=O)[C@H](C(C)C)NC(=O)CNC(=O)[C@H](Cc2c[nH]cn2)NC(=O)[C@H](C(C)C)NC(=O)[C@@H]2CCCN2C(=O)CNC(=O)[C@H](CC(=O)O)NC(=O)[C@H](CC(C)C)NC1=O [H-CILDGPVHGV-SEAon (via SEAE thioester)]
ring closure, yield over several steps ([1]; from CC[C@H](C)[C@H](NC(=O)[C@@H](N)CS)C(=O)N[C@@H](CC(C)C)C(=O)N[C@@H](CC(=O)O)C(=O)NCC(=O)N1CCC[C@H]1C(=O)N[C@H](C(=O)N[C@@H](Cc1c[nH]cn1)C(=O)NCC(=O)N[C@H](C(=O)SCCNCCS)C(C)C)C(C)C, 30-membered ring, 0.067 h): 37%
ring closure, conversion by HPLC ([2]; from CC[C@H](C)[C@H](NC(=O)[C@@H](N)CS)C(=O)N[C@@H](CC(C)C)C(=O)N[C@@H](CC(=O)O)C(=O)NCC(=O)N1CCC[C@H]1C(=O)N[C@H](C(=O)N[C@@H](Cc1c[nH]cn1)C(=O)NCC(=O)N[C@H](C(=O)SCCNCCS)C(C)C)C(C)C): 43

CC[C@H](C)[C@@H]1NC(=O)CNC(=O)[C@H](Cc2c[nH]cn2)NC(=O)[C@H](C(C)C)NC(=O)CNC(=O)[C@H](CCC(=O)O)NC(=O)[C@H](CCCCN)NC(=O)[C@H](CC(C)C)NC(=O)[C@H]([C@@H](C)CC)NC(=O)[C@H](CS)NC1=O [H-CILKEGVHGI-SEAon (via SEAE thioester)]
ring closure, yield over several steps ([1]; from CC[C@H](C)[C@H](NC(=O)[C@@H](N)CS)C(=O)N[C@@H](CC(C)C)C(=O)N[C@@H](CCCCN)C(=O)N[C@@H](CCC(=O)O)C(=O)NCC(=O)N[C@H](C(=O)N[C@@H](Cc1c[nH]cn1)C(=O)NCC(=O)N[C@H](C(=O)SCCNCCS)[C@@H](C)CC)C(C)C, 30-membered ring, 0.067 h): 51%
ring closure, conversion by HPLC ([2]; from CC[C@H](C)[C@H](NC(=O)[C@@H](N)CS)C(=O)N[C@@H](CC(C)C)C(=O)N[C@@H](CCCCN)C(=O)N[C@@H](CCC(=O)O)C(=O)NCC(=O)N[C@H](C(=O)N[C@@H](Cc1c[nH]cn1)C(=O)NCC(=O)N[C@H](C(=O)SCCNCCS)[C@@H](C)CC)C(C)C): 96

CC[C@H](C)[C@@H]1NC(=O)[C@H](CS)NC(=O)[C@@H]2CCCN2C(=O)CNC(=O)[C@H](Cc2c[nH]cn2)NC(=O)[C@H](C(C)C)NC(=O)CNC(=O)[C@H](CCC(=O)O)NC(=O)[C@H](CCCCN)NC(=O)[C@H](CC(C)C)NC1=O [H-CILKEGVHGP-SEAon (via SEAE thioester)]
ring closure, yield over several steps ([1]; from CC[C@H](C)[C@H](NC(=O)[C@@H](N)CS)C(=O)N[C@@H](CC(C)C)C(=O)N[C@@H](CCCCN)C(=O)N[C@@H](CCC(=O)O)C(=O)NCC(=O)N[C@H](C(=O)N[C@@H](Cc1c[nH]cn1)C(=O)NCC(=O)N1CCC[C@H]1C(=O)SCCNCCS)C(C)C, 30-membered ring, 0.067 h): 38%
ring closure, conversion by HPLC ([2]; from CC[C@H](C)[C@H](NC(=O)[C@@H](N)CS)C(=O)N[C@@H](CC(C)C)C(=O)N[C@@H](CCCCN)C(=O)N[C@@H](CCC(=O)O)C(=O)NCC(=O)N[C@H](C(=O)N[C@@H](Cc1c[nH]cn1)C(=O)NCC(=O)N1CCC[C@H]1C(=O)SCCNCCS)C(C)C): 70

CC[C@H](C)[C@@H]1NC(=O)[C@H](CS)NC(=O)[C@H]([C@@H](C)O)NC(=O)CNC(=O)[C@H](Cc2c[nH]cn2)NC(=O)[C@H](C(C)C)NC(=O)CNC(=O)[C@H](CCC(=O)O)NC(=O)[C@H](CCCCN)NC(=O)[C@H](CC(C)C)NC1=O [H-CILKEGVHGT-SEAon (via SEAE thioester)]
ring closure, yield over several steps ([1]; from CC[C@H](C)[C@H](NC(=O)[C@@H](N)CS)C(=O)N[C@@H](CC(C)C)C(=O)N[C@@H](CCCCN)C(=O)N[C@@H](CCC(=O)O)C(=O)NCC(=O)N[C@H](C(=O)N[C@@H](Cc1c[nH]cn1)C(=O)NCC(=O)N[C@H](C(=O)SCCNCCS)[C@@H](C)O)C(C)C, 30-membered ring, 0.067 h): 49%
ring closure, conversion by HPLC ([2]; from CC[C@H](C)[C@H](NC(=O)[C@@H](N)CS)C(=O)N[C@@H](CC(C)C)C(=O)N[C@@H](CCCCN)C(=O)N[C@@H](CCC(=O)O)C(=O)NCC(=O)N[C@H](C(=O)N[C@@H](Cc1c[nH]cn1)C(=O)NCC(=O)N[C@H](C(=O)SCCNCCS)[C@@H](C)O)C(C)C): 73

CC[C@H](C)[C@@H]1NC(=O)[C@H](CS)NC(=O)[C@H](C(C)C)NC(=O)CNC(=O)[C@H](Cc2c[nH]cn2)NC(=O)[C@H](C(C)C)NC(=O)CNC(=O)[C@H](CCC(=O)O)NC(=O)[C@H](CCCCN)NC(=O)[C@H](CC(C)C)NC1=O [H-CILKEGVHGV-SEAon (via SEAE thioester)]
ring closure, yield over several steps ([1]; from CC[C@H](C)[C@H](NC(=O)[C@@H](N)CS)C(=O)N[C@@H](CC(C)C)C(=O)N[C@@H](CCCCN)C(=O)N[C@@H](CCC(=O)O)C(=O)NCC(=O)N[C@H](C(=O)N[C@@H](Cc1c[nH]cn1)C(=O)NCC(=O)N[C@H](C(=O)SCCNCCS)C(C)C)C(C)C, 30-membered ring, 0.067 h): 46%
ring closure, conversion by HPLC ([2]; from CC[C@H](C)[C@H](NC(=O)[C@@H](N)CS)C(=O)N[C@@H](CC(C)C)C(=O)N[C@@H](CCCCN)C(=O)N[C@@H](CCC(=O)O)C(=O)NCC(=O)N[C@H](C(=O)N[C@@H](Cc1c[nH]cn1)C(=O)NCC(=O)N[C@H](C(=O)SCCNCCS)C(C)C)C(C)C): 73

CC[C@H](C)[C@@H]1NC(=O)[C@H](CS)NC(=O)[C@H](C(C)C)NC(=O)CNC(=O)[C@H](Cc2c[nH]cn2)NC(=O)[C@H](C(C)C)NC(=O)[C@@H]2CCCN2C(=O)[C@H](CCC(=O)O)NC(=O)[C@H](CCCCN)NC(=O)[C@H](CC(C)C)NC1=O [H-CILKEPVHGV-SEAon (via SEAE thioester)]
ring closure, yield over several steps ([1]; from CC[C@H](C)[C@H](NC(=O)[C@@H](N)CS)C(=O)N[C@@H](CC(C)C)C(=O)N[C@@H](CCCCN)C(=O)N[C@@H](CCC(=O)O)C(=O)N1CCC[C@H]1C(=O)N[C@H](C(=O)N[C@@H](Cc1c[nH]cn1)C(=O)NCC(=O)N[C@H](C(=O)SCCNCCS)C(C)C)C(C)C, 30-membered ring, 0.067 h): 46%
ring closure, conversion by HPLC ([2]; from CC[C@H](C)[C@H](NC(=O)[C@@H](N)CS)C(=O)N[C@@H](CC(C)C)C(=O)N[C@@H](CCCCN)C(=O)N[C@@H](CCC(=O)O)C(=O)N1CCC[C@H]1C(=O)N[C@H](C(=O)N[C@@H](Cc1c[nH]cn1)C(=O)NCC(=O)N[C@H](C(=O)SCCNCCS)C(C)C)C(C)C): 56

H-CQPWSSMIPHEHSFLPSSYRGKDLQENY-SEAon (via SEAE thioester)
ring closure, yield over several steps ([1]; the molecule shown is the open-chain precursor, 84-membered ring, 0.25 h): 41%

H-CRAIATRGFARALARRGV-SEAon (via SEAE thioester)
ring closure, yield over several steps ([1]; the molecule shown is the open-chain precursor, 54-membered ring, 0.067 h): 37%

H-CRCICTRGFCRCLCRRGV-SEAon (via SEAE thioester)
ring closure, yield over several steps [1, 3]: 29%

H-CRCLCRRGVCRCICTRGF-SEAon (via SEAE thioester)
ring closure, yield over several steps [1, 3]: 23%

H-CTRGFCRCLCRRGVCRCI-SEAon (via SEAE thioester)
ring closure, yield over several steps [1, 3]: 34%
